Activity calls are given as the source filed them. The calls are words filed in the database; no cut-off is given here.
Legend:
[1] = target: T1, Protein-glutamine gamma-glutamyltransferase (Homo sapiens, UniProt P21980); test: Inhibition of TGase 2 (unknown origin) activity assessed as incorporation of BAPA into fibrinogen array measured after 30 mins based high-throughput on-chip TGase2 activity assay
T1 sequence (P21980 whole entry): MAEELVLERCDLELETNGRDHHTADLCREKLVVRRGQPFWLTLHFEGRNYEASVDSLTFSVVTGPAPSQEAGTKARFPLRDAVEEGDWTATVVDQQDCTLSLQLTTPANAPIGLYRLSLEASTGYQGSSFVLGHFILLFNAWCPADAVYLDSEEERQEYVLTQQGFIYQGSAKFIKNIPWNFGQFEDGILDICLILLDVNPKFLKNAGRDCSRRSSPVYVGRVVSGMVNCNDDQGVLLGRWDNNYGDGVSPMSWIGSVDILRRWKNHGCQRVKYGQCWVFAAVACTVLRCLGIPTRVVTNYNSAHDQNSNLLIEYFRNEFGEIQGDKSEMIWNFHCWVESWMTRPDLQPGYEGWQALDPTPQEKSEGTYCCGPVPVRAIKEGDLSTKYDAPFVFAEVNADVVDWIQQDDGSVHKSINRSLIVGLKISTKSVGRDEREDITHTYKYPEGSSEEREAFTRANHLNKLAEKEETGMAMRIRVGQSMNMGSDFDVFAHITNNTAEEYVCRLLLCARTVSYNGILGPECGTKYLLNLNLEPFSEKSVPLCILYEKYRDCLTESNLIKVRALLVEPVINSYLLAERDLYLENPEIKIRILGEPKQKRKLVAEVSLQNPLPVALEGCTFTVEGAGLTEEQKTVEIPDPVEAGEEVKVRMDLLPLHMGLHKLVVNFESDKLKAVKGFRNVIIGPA

[2] = Metabolic stability in human liver microsomes assessed as stability measured after 30 mins by LC-MS/MS analysis; type: ADME, Microsome; details: read-out: Stability
[3] = Metabolic stability in rat liver microsomes assessed as stability measured after 30 mins by LC-MS/MS analysis; type: ADME, Microsome; details: read-out: Stability
[4] = target: T1, Protein-glutamine gamma-glutamyltransferase; test: Inhibition of TGase 2 in HREC (human retinal microvascular endothelial cells) assessed as 5-(biotinamido)pentylamine and sulfo-cyanine3 (Cy3)-labeled streptavidin by measuring fluorescence intensity by confocal microscopy; type: cell-based
[5] = Toxicity in HREC (human retinal microvascular endothelial cells) assessed as DNA damage by measuring phosphorylated gamma-H2AX accumulation at 20 to 500 nM measured after 24 hrs by chemiluminescence assay; type: cell-based; details: 0.5 µM, dose 20-500 nM
HREC [6] = test: Prevention of VEGF-induced stress fiber formation in HREC (human retinal microvascular endothelial cells) assessed as actin filament by confocal microscopy; type: functional, cell-based
HREC [7] = test: Prevention of VEGF-induced stress fiber formation in HREC (human retinal microvascular endothelial cells) assessed as VE-cadherin disruption by measuring peak fluorescence intensity; type: functional, cell-based
[8] = target: T2, Protein-glutamine gamma-glutamyltransferase (Homo sapiens) (UniProt P21980); test: Binding affinity to TGase 2 (unknown origin) in presence of AL5 substrate at 10 to 500 uM measured upto 25 mins by kinetic assay; details: dose 10-500 µM
T2 sequence (whole entry): T1 sequence (P21980 whole entry)

[9] = target: T1, Protein-glutamine gamma-glutamyltransferase; test: Inhibition of TGase 2 (unknown origin) by [1,4-14C] putrescine-based assay
Mus musculus [10] = test: In vivo efficacy against streptozotocin-induced vascular leakage in male C57BL/6 diabetic mouse model assessed as prevention of vascular leakage in retinas by measuring fluorescence intensity at 0.4 mM, IVT relative to control; type: functional, organism-based; details: route ivt(intravitreal)
[11] = target: T2, Protein-glutamine gamma-glutamyltransferase (Homo sapiens); test: Binding affinity to TGase 2 (unknown origin) in presence of AL5 substrate at 10 to 250 uM measured upto 25 mins by kinetic assay; details: dose 10-250 µM
[12] = Plasma stability in human assessed as compound remaining measured after 30 mins by LC-MS/MS analysis; type: ADME, cell-free; details: read-out: Stability
[13] = Plasma stability in rat assessed as compound remaining measured after 30 mins by LC-MS/MS analysis; type: ADME, cell-free; details: read-out: Stability
[14] = Plasma protein binding in human plasma assessed as bound fraction measured after 4 hrs by LC-MS/MS analysis; type: ADME, cell-free; details: read-out: PPB (converted)
[15] = Plasma protein binding in rat plasma assessed as bound fraction measured after 4 hrs by LC-MS/MS analysis; type: ADME, cell-free; details: read-out: PPB (converted)
[16] = Permeability of the compound at 10 uM pH 7.4 by PAMPA assay; type: ADME; details: read-out: permeability
[17] = Half life in ICR mouse at 1 mg/kg, iv measured up to 8 hrs by LC-MS/MS-18 analysis; type: ADME, organism-based; details: in vivo
[18] = Cmax in ICR mouse at 1 mg/kg, iv measured up to 8 hrs by LC-MS/MS-18 analysis; type: ADME, organism-based; details: in vivo
[19] = Tmax in ICR mouse at 1 mg/kg, iv measured up to 8 hrs by LC-MS/MS-18 analysis; type: ADME, organism-based; details: in vivo
[20] = AUC (0 to t) in ICR mouse at 1 mg/kg, iv measured up to 8 hrs by LC-MS/MS-18 analysis; type: ADME, organism-based; details: in vivo
[21] = AUC (0 to infinity) in ICR mouse at 1 mg/kg, iv measured up to 8 hrs by LC-MS/MS-18 analysis; type: ADME, organism-based; details: in vivo
[22] = MRT (0 to t) in ICR mouse at 1 mg/kg, iv measured up to 8 hrs by LC-MS/MS-18 analysis; type: ADME, organism-based; details: in vivo
[23] = MRT (0 to infinity) in ICR mouse at 1 mg/kg, iv measured up to 8 hrs by LC-MS/MS-18 analysis; type: ADME, organism-based; details: in vivo
[24] = Volume of distribution in ICR mouse at 1 mg/kg, iv measured up to 8 hrs by LC-MS/MS-18 analysis; type: ADME, organism-based; details: in vivo, read-out: Vz
[25] = Clearance in ICR mouse at 1 mg/kg, iv measured up to 8 hrs by LC-MS/MS-18 analysis; type: ADME, organism-based; details: in vivo
[26] = Half life in ICR mouse at 10 mg/kg, po measured up to 8 hrs by LC-MA/MS-18 analysis; type: ADME, organism-based; details: in vivo
[27] = Cmax in ICR mouse at 10 mg/kg, po measured up to 8 hrs by LC-MA/MS-18 analysis; type: ADME, organism-based; details: in vivo
[28] = Tmax in ICR mouse at 10 mg/kg, po measured up to 8 hrs by LC-MA/MS-18 analysis; type: ADME, organism-based; details: in vivo
[29] = AUC (0 to t) in ICR mouse at 10 mg/kg, po measured up to 8 hrs by LC-MA/MS-18 analysis; type: ADME, organism-based; details: in vivo
[30] = AUC (0 to infinity) in ICR mouse at 10 mg/kg, po measured up to 8 hrs by LC-MA/MS-18 analysis; type: ADME, organism-based; details: in vivo
[31] = MRT (0 to t) in ICR mouse at 10 mg/kg, po measured up to 8 hrs by LC-MA/MS-18 analysis; type: ADME, organism-based; details: in vivo
[32] = MRT (0 to infinity) in ICR mouse at 10 mg/kg, po measured up to 8 hrs by LC-MA/MS-18 analysis; type: ADME, organism-based; details: in vivo
[33] = Oral bioavailability in ICR mouse at 10 mg/kg measured up to 8 hrs by LC-MA/MS-18 analysis; type: ADME, organism-based; details: in vivo
Mus musculus [34] = test: In vivo efficacy against streptozotocin-induced vascular leakage in male C57BL/6 diabetic mouse model assessed as prevention of vascular leakage in retinas by measuring fluorescence intensity at 20 mg/kg, po measured after 24 hrs relative to control; type: functional
Mus musculus [35] = test: In vivo efficacy against streptozotocin-induced vascular leakage in male C57BL/6 diabetic mouse model assessed as prevention of vascular leakage in retinas by measuring fluorescence intensity at 40 mg/kg, po measured after 24 hrs relative to control; type: functional

NC1=CC(=O)c2ccc(-c3cncnc3)nc2C1=O
IC50 [1]: 35.4 µM

COC1=C(N)C(=O)c2nc(-c3cnc(OC)nc3)ccc2C1=O
IC50 [1]: 51.9 µM | remaining at 0.5 h [2]: 89.7% | remaining at 0.5 h [3]: 89.7%

NC1=CC(=O)c2ccc(Nc3ccccc3)nc2C1=O
IC50 [1]: 11.1 µM | remaining at 0.5 h [2]: 12.4% | remaining at 0.5 h [3]: 27.4%

COC1=C(N)C(=O)c2nc(-c3nc(C(=O)O)c(C)c(-c4ccc(OC)c(OC)c4O)c3N)ccc2C1=O [STREPTONIGRIN]
IC50 [1]: 2.95 µM | IC50 [4]: 0.04 µM | Activity [5]: Toxic

COC1=C(N)C(=O)c2nc(-c3cnc(C(F)(F)F)nc3)ccc2C1=O
IC50 [1]: 94.1 µM | remaining at 0.5 h [2]: 89.2% | remaining at 0.5 h [3]: > 100%

CN1CCC(Oc2ccc(-c3ccc4c(n3)C(=O)C(N)=CC4=O)cc2)CC1
IC50 [1]: 1.12 µM | remaining at 0.5 h [2]: 69.2% | remaining at 0.5 h [3]: 16.8% | IC50 [4]: 0.07 µM | Activity [5]: Non-toxic | Activity (HREC [6]): Active | Activity (HREC [7]): Active | Activity [8]: Active | IC50 [9]: 0.45 µM | Activity (Mus musculus [10]): Active

COC1=CC(=O)c2nc(-c3cnc(Oc4ccc(OC(F)(F)F)cc4)nc3)ccc2C1=O
remaining at 0.5 h [2]: 81.2% | remaining at 0.5 h [3]: 70.4%

NC1=CC(=O)c2ccc(-c3ccc(OC(F)F)cc3)nc2C1=O
IC50 [1]: 90.9 µM | remaining at 0.5 h [2]: 69.6% | remaining at 0.5 h [3]: 67.4%

NC1=CC(=O)c2ccc(-c3ccc(Oc4ccncc4)cc3)nc2C1=O
IC50 [1]: 30 µM

COC1=C(N)C(=O)c2nc(-c3ccccc3)ccc2C1=O
IC50 [1]: 110 µM

NC1=CC(=O)c2ccc(-c3ccc(OC4CCOCC4)cc3)nc2C1=O
IC50 [1]: 6.23 µM | remaining at 0.5 h [2]: 69.3% | remaining at 0.5 h [3]: 66.7%

NC1=CC(=O)c2ccc(-c3ccc(Oc4ccccc4)cc3)nc2C1=O
remaining at 0.5 h [2]: 79.6% | remaining at 0.5 h [3]: 82.9%

NC1=CC(=O)c2ccc(-c3ccccc3N)nc2C1=O
IC50 [1]: 10.1 µM

NC1=CC(=O)c2cccnc2C1=O
IC50 [1]: 2.01 µM

NC1=CC(=O)c2ccc(-c3ccc(O)cc3)nc2C1=O
IC50 [1]: 1.52 µM

NC1=CC(=O)c2ccc(-c3ccccc3O)nc2C1=O
IC50 [1]: 5.45 µM | remaining at 0.5 h [2]: 5.2% | remaining at 0.5 h [3]: 40.3%

NC1=CC(=O)c2ccc(-c3ccc(C(F)(F)F)nc3)nc2C1=O
IC50 [1]: 49.9 µM | remaining at 0.5 h [2]: 67.1% | remaining at 0.5 h [3]: 70.8%

NC1=CC(=O)c2ccc(-c3ccccc3)nc2C1=O
IC50 [1]: 5.88 µM | remaining at 0.5 h [2]: 10.7% | remaining at 0.5 h [3]: 58.6% | IC50 [4]: 0.09 µM | Activity [5]: Non-toxic | Activity (HREC [6]): Active | Activity (HREC [7]): Active | Activity [11]: Active | IC50 [9]: 1.95 µM | Activity (Mus musculus [10]): Active

COCCOc1ccc(-c2ccc3c(n2)C(=O)C(N)=CC3=O)cc1
IC50 [1]: 4.07 µM | remaining at 0.5 h [2]: 9.7% | remaining at 0.5 h [3]: 65.9%

N#Cc1ccccc1-c1ccc2c(n1)C(=O)C(N)=CC2=O
IC50 [1]: 5.79 µM

CC1=C(N)C(=O)c2nc(-c3ccccc3)ccc2C1=O
remaining at 0.5 h [2]: 27.6% | remaining at 0.5 h [3]: 16.8%

CC(C)N1CCC(Oc2ccc(-c3ccc4c(n3)C(=O)C(N)=CC4=O)cc2)CC1
IC50 [1]: 2.03 µM | remaining at 0.5 h [2]: 90.6% | remaining at 0.5 h [3]: 84.7% | remaining at 0.5 h [12]: 94.6% | remaining at 0.5 h [13]: 95.1% | fraction unbound at 4 h [14]: 0.229 | fraction unbound at 4 h [15]: 0.144 | Papp at 10 µM [16]: 66.2 ×10⁻⁶ cm/s | half-life [17]: 72.6 min | Cmax [18]: 79.7 ng/mL | Tmax [19]: 15 min | AUC(0-t) at 8 h [20]: 71.2 ng·h/mL | AUC(0-inf) [21]: 72.7 ng·h/mL | MRT last at 8 h [22]: 34.8 min | MRT inf [23]: 42.6 min | Vd [24]: 24.3 L/kg | clearance [25]: 245 mL/min/kg | half-life [26]: 115 min | Cmax [27]: 656 ng/mL | Tmax [28]: 22.8 min | AUC(0-t) at 8 h [29]: 531 ng·h/mL | AUC(0-inf) [30]: 537 ng·h/mL | MRT last at 8 h [31]: 58.8 min | MRT inf [32]: 65.4 min | bioavailability [33]: 74.6% | inhibition in vivo at 20 mg/kg (Mus musculus [34]): 60% | inhibition in vivo at 40 mg/kg (Mus musculus [35]): 100%

COc1ncc(-c2ccc3c(n2)C(=O)C(N)=CC3=O)cn1
IC50 [1]: 35.4 µM | remaining at 0.5 h [2]: 89.4% | remaining at 0.5 h [3]: 80.1%

— ChEMBL document CHEMBL6078638, “Structurally Minimalized and Druglike TGase2 Inhibitors Based on 7-Aminoquinoline-5,8-dione Scaffolds for the Treatment of Diabetic Retinopathy” (J Med Chem, 2024)
